Results reported in ChEMBL document CHEMBL1201862, “PubChem BioAssay data set” (2004).
Values belong to the molecule of their own block, whether it stands above or below them. Active and inactive are the calls of the source.

Columns and labels:
[1] = molecular target: T1, Probable nicotinate-nucleotide adenylyltransferase (Staphylococcus aureus (strain N315), UniProt P65502); type: functional, Staphylococcus aureus subsp. aureus N315; conditions: read-out: IC50_Mean;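 as to IC50 Mean: confirmatory dose-response retesting of NadD inhibitor hits first found in an ultra-high-throughput screen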
[2] = molecular target: T1, Probable nicotinate-nucleotide adenylyltransferase; type: functional, Staphylococcus aureus subsp. aureus N315
[3] = molecular target: T2, RNA-binding protein pos-1 (Caenorhabditis elegans, UniProt G5EF15); test: disruptors of C. elegans POS-1 RNA interaction – biochemical, fluorescence polarization, dose response (AID 1964);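 also: purified POS-1 fused to maltose binding protein made in E. coli; potency of compounds blocking POS-1 binding to fluorescent RNA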
T2 sequence (G5EF15 whole entry): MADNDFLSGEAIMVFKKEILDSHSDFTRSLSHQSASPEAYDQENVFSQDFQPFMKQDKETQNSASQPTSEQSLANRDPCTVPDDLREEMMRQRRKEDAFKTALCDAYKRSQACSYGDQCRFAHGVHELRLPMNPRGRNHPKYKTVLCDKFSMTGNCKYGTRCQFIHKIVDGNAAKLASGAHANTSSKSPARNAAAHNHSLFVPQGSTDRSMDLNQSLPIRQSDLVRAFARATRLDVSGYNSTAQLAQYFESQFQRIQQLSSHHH

[4] = molecular target: T3, Zinc finger protein mex-5 (Caenorhabditis elegans, UniProt Q9XUB2); test: potency of MEX-5 RNA-binding blockers – biochemical, C. elegans, fluorescence polarization, dose response (AID 1960)
T3 sequence (Q9XUB2 whole entry): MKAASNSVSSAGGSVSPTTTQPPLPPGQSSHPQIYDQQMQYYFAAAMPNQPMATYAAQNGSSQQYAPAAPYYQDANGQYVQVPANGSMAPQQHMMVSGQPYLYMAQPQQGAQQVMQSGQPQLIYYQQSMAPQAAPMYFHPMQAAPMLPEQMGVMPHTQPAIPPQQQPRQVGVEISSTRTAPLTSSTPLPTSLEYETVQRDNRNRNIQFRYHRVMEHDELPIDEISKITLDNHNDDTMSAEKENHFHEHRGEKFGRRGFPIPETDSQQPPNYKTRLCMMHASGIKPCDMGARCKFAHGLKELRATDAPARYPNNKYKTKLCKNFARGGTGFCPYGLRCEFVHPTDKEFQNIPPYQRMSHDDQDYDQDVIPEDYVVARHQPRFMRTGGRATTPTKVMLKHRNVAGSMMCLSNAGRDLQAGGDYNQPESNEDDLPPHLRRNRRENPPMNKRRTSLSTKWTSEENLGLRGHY

[5] = activation of miR-122 Renilla sensor silencing – cell-based, Huh7 psiCHECK-miR122, Renilla luciferase, cherry-picked, dose response (AID 651956); type: functional;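 also: huh7 hepatoma cells stably carrying a psiCHECK-2 miR-122 sensor plasmid; renilla luciferase signal reporting endogenous miR-122 activity after 48 h compound exposure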
[6] = general mammalian cell viability loss – inhibitor set, cherry-pick, set 2, cytotoxicity control for miR-122 modulator project, dose response (AID 720697); type: functional, cell-based
Prothrombin = Prothrombin (Bos taurus, UniProt P00735); test: thrombin protease inhibitors – biochemical, fluorescence polarization, uHTS hits, dose response (AID 602369); type: functional
[7] = viability of HCT116 lacking mutant beta-catenin – cell-based, human colon tumor, dose response (AID 1045); type: functional;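 also: HCT116 colon tumor cells with beta catenin knocked out; cells exposed to compound for 60 hours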
[8] = molecular target: T4, Microphthalmia-associated transcription factor (Homo sapiens, UniProt O75030); test: reducers of TRPM1 reporter luminescence, concentration series – cell-based, SK-MEL-5, cherry-picked, set 3, MITF inhibitor project, dose response (AID 493073); type: functional;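 also: SK-MEL-5 melanoma cells with luciferase driven by the MITF target TRPM1 promoter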
T4 sequence (O75030 whole entry): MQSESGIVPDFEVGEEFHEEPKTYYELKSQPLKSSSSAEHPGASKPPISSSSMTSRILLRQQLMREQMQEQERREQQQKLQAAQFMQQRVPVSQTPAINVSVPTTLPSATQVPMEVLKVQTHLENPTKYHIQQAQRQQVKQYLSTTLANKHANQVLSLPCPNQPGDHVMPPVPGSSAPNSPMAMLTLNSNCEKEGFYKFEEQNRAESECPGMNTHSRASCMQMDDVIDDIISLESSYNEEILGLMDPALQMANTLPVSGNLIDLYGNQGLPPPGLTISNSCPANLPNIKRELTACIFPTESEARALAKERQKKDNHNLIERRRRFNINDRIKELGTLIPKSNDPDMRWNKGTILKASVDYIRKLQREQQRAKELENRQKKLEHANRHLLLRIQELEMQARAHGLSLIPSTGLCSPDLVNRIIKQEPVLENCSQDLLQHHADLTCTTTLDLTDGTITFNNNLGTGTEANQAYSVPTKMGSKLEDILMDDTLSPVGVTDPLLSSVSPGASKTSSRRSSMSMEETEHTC

Cytochrome P450 2C19 = Cytochrome P450 2C19 (Homo sapiens, UniProt P33261); test: Cytochrome panel assay with activity outcomes. Panel member name: p450-cyp2c19 Compounds with AC50 equal or less than 10 uM are considered active; type: functional; conditions: read-out: AC50
[9] = viability of PTEN-deleted HCT116 cells – cell-based, HCT116 PTEN knockout, dose response (AID 1047); type: functional;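 also: HCT116 colon tumor cells with PTEN knocked out; cells exposed to compound for 60 hours before readout; potency for loss of cell viability measured by luminescence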
Cytochrome P450 3A4 = Cytochrome P450 3A4 (Homo sapiens, UniProt P08684);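 also: CYP3A4 tested as one member of a cytochrome P450 panel screen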
[10] = Trypanosoma cruzi growth suppression in host cells – NIH3T3 host cells, beta-gal luminescence, confirmation (AID 2044); type: functional, cell-based;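 also: intracellular parasites grown in NIH/3T3 mouse fibroblasts as host cells; luminescent beta-galactosidase reporter signal from transgenic T. cruzi replicating inside host cells; inhibitors lower the luminescence signal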
[11] = NIH3T3 cell viability loss – ATP luminescence, mouse fibroblasts, counter-screen, dose response (AID 2010); type: functional, cell-based;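 also: cells exposed to compound for about 90 hours before reading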
[12] = molecular target: 72 kDa type IV collagenase (Homo sapiens, UniProt P08253); test: Dose Response validation of uHTS RPN11 inhibitor hits using a MMP-2 Fluorescence assay.; type: functional
[13] = molecular target: 26S proteasome non-ATPase regulatory subunit 14 (Homo sapiens, UniProt O00487); test: inhibition of proteasome subunit RPN11 – biochemical, fluorescence polarization, uHTS hits, confirmation (AID 602368); type: functional
[14] = molecular target: T5, Kappa-type opioid receptor (Homo sapiens, UniProt P41145); type: functional
[15] = molecular target: T5, Kappa-type opioid receptor; type: functional; remark: listed apart in the source
[16] = molecular target: T6, Delta-type opioid receptor (Homo sapiens, UniProt P41143); test: HTS Image-Based Screen for Antagonists of the DOR Receptor. [Related pubchem assays (depositor defined):AID1777, AID1785, AID1786, AID2133]; type: functional
[17] = molecular target: T6, Delta-type opioid receptor; test: HTS Image-Based Screen for Agonists of the DOR Receptor. [Related pubchem assays (depositor defined):AID1777, AID1786, AID2133]; type: functional
Mu-type opioid receptor = Mu-type opioid receptor (Homo sapiens, UniProt P35372); test: HTS Image-Based Screen for Agonists of the MOR Receptor. [Related pubchem assays (depositor defined):AID1777, AID1785, AID1786, AID2133]; type: functional;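 also: imaging of beta-arrestin GFP recruitment into spots after receptor activation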
Beta-galactosidase = Beta-galactosidase (Escherichia coli, UniProt Q8VNN2); type: functional
[18] = molecular target: T7, Low molecular weight phosphotyrosine protein phosphatase (Homo sapiens, UniProt P24666); type: functional; conditions: read-out: IC50_Mean;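 also: Dose-response confirmation assay measuring inhibition of LMPTP enzyme activity by fluorescence intensity read-out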
T7 sequence (P24666 whole entry): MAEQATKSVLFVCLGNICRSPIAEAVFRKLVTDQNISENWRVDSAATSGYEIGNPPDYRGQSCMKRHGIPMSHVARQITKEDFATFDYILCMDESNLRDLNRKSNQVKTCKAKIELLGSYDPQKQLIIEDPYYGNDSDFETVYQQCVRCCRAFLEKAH

[19] = molecular target: Heat shock protein HSP 90-alpha (Homo sapiens, UniProt P07900); type: functional, organism-based
INS1 = test: INS-1E survival protection against cytokine death – cell-based, luminescence, retest, dose response (AID 449756); type: functional; conditions: Rattus norvegicus;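 also: cell death triggered by IL-1 beta plus TNF-alpha plus IFN-gamma mixture; protective hits raise ATP signal compared with cytokine alone wells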
[20] = fluconazole-exposed Candida albicans growth modulators – fluorescence, retest, confirmation (AID 2467); type: functional, cell-based
[21] = NIH-3T3 fibroblast cytotoxicity, dose response, cytotoxicity control, cell-based, fluorescence, Alamar Blue, secondary assay (AID 2327); type: functional;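 also: NIH-3T3 mouse fibroblasts cultured with fluconazole at 8 µg/mL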
[22] = molecular target: Glucose-6-phosphate 1-dehydrogenase (Homo sapiens, UniProt P11413); test: inhibition of Homo sapiens G6PD, dose series – biochemical, fluorescence, selectivity assay for P. falciparum G6PD inhibitor project, dose response (AID 504792); type: functional
cells [23] = type: functional, cell-based
cells [24] = type: functional, cell-based; remark: listed apart in the source
Protein skinhead-1 = molecular target: T8, Protein skinhead-1 (Caenorhabditis elegans, UniProt P34707); type: functional
T8 sequence (P34707 whole entry): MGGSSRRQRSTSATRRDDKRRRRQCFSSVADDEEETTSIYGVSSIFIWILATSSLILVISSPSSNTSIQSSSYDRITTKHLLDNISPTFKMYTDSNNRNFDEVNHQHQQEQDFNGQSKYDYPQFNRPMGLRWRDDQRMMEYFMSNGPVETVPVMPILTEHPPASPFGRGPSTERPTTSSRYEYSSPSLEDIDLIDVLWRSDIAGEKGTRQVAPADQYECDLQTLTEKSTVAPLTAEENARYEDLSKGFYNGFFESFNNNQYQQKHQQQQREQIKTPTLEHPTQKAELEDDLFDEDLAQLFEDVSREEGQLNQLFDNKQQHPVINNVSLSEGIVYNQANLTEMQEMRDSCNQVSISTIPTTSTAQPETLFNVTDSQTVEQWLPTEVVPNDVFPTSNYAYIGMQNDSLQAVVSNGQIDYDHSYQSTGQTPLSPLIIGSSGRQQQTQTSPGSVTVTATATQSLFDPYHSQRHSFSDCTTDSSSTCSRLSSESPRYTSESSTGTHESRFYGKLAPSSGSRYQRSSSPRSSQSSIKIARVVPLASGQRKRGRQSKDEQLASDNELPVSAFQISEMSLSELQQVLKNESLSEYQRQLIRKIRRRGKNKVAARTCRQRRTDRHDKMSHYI

T5 sequence (P41145 whole entry): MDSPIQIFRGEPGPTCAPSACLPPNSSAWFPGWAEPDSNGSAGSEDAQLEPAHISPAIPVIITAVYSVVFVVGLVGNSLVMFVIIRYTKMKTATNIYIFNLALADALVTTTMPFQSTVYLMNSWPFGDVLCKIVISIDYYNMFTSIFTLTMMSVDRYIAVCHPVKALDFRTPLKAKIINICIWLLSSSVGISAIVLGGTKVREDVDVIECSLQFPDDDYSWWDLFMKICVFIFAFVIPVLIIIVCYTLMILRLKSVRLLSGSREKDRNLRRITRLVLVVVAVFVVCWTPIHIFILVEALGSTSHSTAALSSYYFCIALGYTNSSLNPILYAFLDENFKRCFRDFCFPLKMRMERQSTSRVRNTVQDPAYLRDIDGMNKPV
T6 sequence (P41143 whole entry): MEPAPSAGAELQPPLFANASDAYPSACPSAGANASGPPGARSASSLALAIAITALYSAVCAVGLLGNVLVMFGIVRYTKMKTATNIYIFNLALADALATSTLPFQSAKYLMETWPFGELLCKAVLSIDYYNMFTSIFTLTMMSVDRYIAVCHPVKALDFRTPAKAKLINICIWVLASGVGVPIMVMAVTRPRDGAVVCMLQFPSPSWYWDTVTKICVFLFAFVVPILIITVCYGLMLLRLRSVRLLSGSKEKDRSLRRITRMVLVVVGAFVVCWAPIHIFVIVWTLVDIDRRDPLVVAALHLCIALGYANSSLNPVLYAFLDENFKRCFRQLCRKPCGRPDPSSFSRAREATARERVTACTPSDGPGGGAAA
Sequence of 26S proteasome non-ATPase regulatory subunit 14 (O00487 whole entry): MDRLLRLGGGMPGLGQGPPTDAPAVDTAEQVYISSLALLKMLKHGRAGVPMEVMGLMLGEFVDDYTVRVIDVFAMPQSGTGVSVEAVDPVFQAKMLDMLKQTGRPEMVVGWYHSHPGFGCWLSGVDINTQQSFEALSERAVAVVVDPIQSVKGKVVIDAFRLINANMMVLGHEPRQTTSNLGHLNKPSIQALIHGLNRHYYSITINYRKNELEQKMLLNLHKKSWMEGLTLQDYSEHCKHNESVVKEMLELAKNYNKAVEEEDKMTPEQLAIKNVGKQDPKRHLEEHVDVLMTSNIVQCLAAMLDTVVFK
Sequence of 72 kDa type IV collagenase (P08253 whole entry): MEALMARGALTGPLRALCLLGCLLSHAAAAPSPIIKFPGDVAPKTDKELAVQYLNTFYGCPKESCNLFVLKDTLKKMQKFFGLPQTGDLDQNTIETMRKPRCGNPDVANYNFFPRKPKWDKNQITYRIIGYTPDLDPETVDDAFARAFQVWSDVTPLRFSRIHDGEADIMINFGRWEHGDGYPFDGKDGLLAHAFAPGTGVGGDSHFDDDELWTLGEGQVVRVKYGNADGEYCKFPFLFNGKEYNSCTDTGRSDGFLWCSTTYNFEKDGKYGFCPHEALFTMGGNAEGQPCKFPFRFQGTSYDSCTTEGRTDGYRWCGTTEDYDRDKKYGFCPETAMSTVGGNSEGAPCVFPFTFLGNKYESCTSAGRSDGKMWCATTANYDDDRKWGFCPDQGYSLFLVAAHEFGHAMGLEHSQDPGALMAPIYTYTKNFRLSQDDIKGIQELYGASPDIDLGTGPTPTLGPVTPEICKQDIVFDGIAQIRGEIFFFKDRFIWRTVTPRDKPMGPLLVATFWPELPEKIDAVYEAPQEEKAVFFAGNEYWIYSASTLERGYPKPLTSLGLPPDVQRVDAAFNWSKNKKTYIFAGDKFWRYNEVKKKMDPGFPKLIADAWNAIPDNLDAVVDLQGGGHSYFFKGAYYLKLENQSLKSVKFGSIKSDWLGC
Sequence of Cytochrome P450 2C19 (P33261 whole entry): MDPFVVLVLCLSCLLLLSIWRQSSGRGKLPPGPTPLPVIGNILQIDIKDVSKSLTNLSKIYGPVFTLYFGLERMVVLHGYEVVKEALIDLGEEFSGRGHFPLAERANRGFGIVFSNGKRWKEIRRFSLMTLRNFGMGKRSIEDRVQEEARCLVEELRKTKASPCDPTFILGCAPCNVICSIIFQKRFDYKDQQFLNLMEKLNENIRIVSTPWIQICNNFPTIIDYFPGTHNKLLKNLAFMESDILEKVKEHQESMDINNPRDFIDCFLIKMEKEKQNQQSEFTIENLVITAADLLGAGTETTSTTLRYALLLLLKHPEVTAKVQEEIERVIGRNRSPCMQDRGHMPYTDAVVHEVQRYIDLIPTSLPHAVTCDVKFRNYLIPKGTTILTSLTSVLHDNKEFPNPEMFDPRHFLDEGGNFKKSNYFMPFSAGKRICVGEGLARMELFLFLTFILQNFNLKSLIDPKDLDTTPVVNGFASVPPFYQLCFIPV
Sequence of Mu-type opioid receptor (P35372 whole entry): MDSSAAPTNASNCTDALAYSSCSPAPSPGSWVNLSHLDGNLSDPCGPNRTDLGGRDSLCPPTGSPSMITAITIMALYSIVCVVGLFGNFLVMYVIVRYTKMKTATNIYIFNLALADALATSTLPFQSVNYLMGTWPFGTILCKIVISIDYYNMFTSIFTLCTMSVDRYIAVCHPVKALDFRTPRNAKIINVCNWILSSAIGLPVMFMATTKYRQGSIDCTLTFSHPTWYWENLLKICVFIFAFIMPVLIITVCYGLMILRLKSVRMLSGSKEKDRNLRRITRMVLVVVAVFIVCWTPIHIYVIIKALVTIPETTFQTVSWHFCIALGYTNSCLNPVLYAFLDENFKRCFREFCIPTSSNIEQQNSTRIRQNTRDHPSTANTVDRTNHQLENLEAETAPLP
Sequence of Beta-galactosidase (Q8VNN2 whole entry): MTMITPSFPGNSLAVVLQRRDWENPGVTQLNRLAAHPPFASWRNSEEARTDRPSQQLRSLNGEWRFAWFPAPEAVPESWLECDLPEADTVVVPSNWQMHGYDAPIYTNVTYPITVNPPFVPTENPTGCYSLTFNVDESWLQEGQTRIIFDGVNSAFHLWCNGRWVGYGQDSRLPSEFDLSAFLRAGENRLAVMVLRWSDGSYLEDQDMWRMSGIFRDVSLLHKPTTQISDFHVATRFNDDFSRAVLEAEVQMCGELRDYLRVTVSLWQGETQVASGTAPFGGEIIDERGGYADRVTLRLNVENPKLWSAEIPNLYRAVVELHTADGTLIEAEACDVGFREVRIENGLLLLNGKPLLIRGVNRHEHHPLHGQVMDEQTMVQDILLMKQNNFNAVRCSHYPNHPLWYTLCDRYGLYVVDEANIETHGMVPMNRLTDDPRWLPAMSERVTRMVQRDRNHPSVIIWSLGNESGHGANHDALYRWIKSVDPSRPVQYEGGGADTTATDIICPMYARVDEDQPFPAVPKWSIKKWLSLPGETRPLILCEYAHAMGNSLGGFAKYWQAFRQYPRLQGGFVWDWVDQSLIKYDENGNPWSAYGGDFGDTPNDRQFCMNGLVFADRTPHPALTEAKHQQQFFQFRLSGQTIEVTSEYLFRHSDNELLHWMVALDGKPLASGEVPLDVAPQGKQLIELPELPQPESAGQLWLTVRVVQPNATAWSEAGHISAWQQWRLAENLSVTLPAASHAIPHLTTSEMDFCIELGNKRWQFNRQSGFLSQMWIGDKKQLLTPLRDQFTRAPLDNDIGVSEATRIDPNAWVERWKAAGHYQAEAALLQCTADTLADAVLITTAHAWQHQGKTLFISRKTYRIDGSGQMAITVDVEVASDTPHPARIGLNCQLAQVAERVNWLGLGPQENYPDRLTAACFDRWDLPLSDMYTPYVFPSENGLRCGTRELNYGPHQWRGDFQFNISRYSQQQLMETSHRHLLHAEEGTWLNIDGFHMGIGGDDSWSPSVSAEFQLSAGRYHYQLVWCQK
Sequence of Glucose-6-phosphate 1-dehydrogenase (P11413 whole entry): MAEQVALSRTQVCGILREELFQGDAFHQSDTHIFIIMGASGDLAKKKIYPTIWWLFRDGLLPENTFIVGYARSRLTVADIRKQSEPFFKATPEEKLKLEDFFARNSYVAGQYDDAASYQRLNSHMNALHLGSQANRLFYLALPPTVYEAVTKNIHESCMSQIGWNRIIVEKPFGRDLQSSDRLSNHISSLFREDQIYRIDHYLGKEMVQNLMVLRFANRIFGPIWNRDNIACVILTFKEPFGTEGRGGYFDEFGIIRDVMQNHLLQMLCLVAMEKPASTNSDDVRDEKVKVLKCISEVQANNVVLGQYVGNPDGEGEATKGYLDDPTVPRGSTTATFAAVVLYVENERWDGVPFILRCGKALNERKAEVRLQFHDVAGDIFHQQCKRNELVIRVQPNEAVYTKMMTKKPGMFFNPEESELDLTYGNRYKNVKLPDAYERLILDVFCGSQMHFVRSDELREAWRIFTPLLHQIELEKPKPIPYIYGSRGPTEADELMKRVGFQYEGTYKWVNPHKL
Sequence of Cytochrome P450 3A4 (P08684 whole entry): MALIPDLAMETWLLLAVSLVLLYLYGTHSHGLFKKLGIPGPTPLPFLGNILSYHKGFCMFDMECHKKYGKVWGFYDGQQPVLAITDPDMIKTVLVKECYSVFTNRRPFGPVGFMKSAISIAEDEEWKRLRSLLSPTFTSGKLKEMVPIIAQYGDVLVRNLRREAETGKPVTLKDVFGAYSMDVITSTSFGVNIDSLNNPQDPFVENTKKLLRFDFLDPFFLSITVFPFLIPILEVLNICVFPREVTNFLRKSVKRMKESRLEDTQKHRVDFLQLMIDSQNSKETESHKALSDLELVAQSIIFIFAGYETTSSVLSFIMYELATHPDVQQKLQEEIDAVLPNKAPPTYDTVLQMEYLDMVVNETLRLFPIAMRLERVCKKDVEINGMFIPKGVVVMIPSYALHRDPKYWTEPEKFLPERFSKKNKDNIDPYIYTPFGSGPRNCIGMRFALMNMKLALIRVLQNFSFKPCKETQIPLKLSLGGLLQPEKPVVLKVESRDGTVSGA

SMILES: CCOc1ccc2nc(NS(=O)(=O)c3cccs3)sc2c1
- AC50 [5]: 6.98 µM (active)
- AC50 [6]: 1.99 µM (active)

SMILES: Cc1cc2ncn(/N=C/c3ccc([N+](=O)[O-])o3)c2cc1C
- IC50 (Prothrombin): 51.4 µM (active)
- EC50 [7]: 5.7 µM (active)
- AC50 [8]: 21.9 µM (active)
- AC50 (Cytochrome P450 2C19): 1.12 µM (inconclusive)
- EC50 [9]: 6.44 µM (active)
- AC50 (Cytochrome P450 3A4): 15.8 µM (inconclusive)
- EC50 [10]: 0.195 µM (active)
- EC50 [11]: 15.5 µM (active)
- IC50 [12]: > 100 µM (inactive)
- IC50 [13]: 73.6 µM (active)

SMILES: COC(=O)CCCC1=CC2=CC(=O)C(C)(OC(=O)CCc3ccccc3)C(=O)C2=CO1 (configuration not stated)
- IC50 [1]: 14.2 µM (active)
- IC50 [2]: 5.76 µM (active)
- EC50 [3]: 30.9 µM (active)
- EC50 [4]: 26.7 µM (active)

SMILES: O=C(N/N=C/c1sc(N2CCOCC2)nc1-c1ccccc1)c1cccc(S(=O)(=O)N2CCCC2)c1
- AC50 (INS1): 2.44 µM (active)
- EC50 [20]: 3.31 µM (active)
- IC50 (Prothrombin): 24.5 µM (active)
- EC50 [21]: 49.2 µM (active)
- IC50 [12]: > 100 µM (inactive)
- IC50 [13]: 19.6 µM (active)

SMILES: CC(C)c1nnc(NC(=O)c2sc3ccccc3c2Cl)s1
- IC50 [22]: 67.9 µM (inactive)
- AC50 (Cytochrome P450 2C19): 22.4 µM (inconclusive)

SMILES: CNC(=O)C[C@H]1CC[C@@H]2[C@H](COc3ccc(NC(=O)C(C)C)cc3C(=O)N2C)O1
- AC50 [6]: 9.62 µM (active)

SMILES: O=C(NCCc1ccccc1)Oc1ccc(Cl)cc1
- IC50 (cells [23]): > 29.9 µM (inactive)
- EC50 (cells [24]): > 29.9 µM (inactive)

SMILES: Cn1c2ccccc2c2cc(C(=O)OCC(=O)N3CC(=O)Nc4ccccc43)sc21
- IC50 (Protein skinhead-1): > 100 µM (inactive)
- IC50 (Prothrombin): 32.4 µM (active)
- IC50 [12]: > 100 µM (inactive)
- IC50 [13]: 13.9 µM (active)

Results, then the molecule that gave them:

- IC50 [1]: 24 µM (active)
- IC50 [2]: 9.32 µM (active)
- EC50 [3]: 27.8 µM (active)
- EC50 [4]: 21.6 µM (active)
SMILES: CCCCC1=CC2=CC(=O)C(C)(OC(=O)CC)C(=O)C2=CO1 (configuration not stated)

- IC50 [14]: 7.36 µM (active)
- IC50 [15]: > 32 µM
- IC50 [16]: > 32 µM (inactive)
- EC50 [17]: > 32 µM (inactive)
- EC50 (Mu-type opioid receptor): > 32 µM (inactive)
- EC50 (Beta-galactosidase): > 31.5 µM (inactive)
SMILES: Cc1cc(OCC(=O)Nc2ccc(S(=O)(=O)N3CCN(C)CC3)cc2)cc(C)c1Cl

- IC50 [1]: 74.3 µM (active)
- IC50 [2]: 22.5 µM (active)
SMILES: O=C(N/N=C/C=C\c1ccccc1[N+](=O)[O-])c1cc(-c2ccc3ccccc3c2)[nH]n1

- IC50 [14]: 25.3 µM (inactive)
- IC50 [15]: 4.56 µM
- IC50 [16]: > 32 µM (inactive)
- EC50 [17]: > 32 µM (inactive)
- EC50 (Mu-type opioid receptor): > 32 µM (inactive)
- EC50 (Beta-galactosidase): > 31.5 µM (inactive)
SMILES: CCCCN(CCCNC(=O)C1CCN(S(=O)(=O)N2CCOCC2)CC1)c1ccccc1

- IC50 [18]: 27.3 µM (inactive)
SMILES: Cc1cc(N2CCN(C(C(=O)NC3CCCC3)c3ccco3)CC2)c2ccccc2n1 (configuration not stated)

- AC50 [19]: 8.16 µM (active)
SMILES: CCC1=NN2C(=N)/C(=C\c3cccn3-c3ccc(C)cc3C)C(=O)N=C2S1

- AC50 [19]: 4.08 µM (active)
SMILES: Cn1c(CNc2ccc(Cl)cc2)nnc1SCc1ccccc1
